Test results published in article PMC5863515, “Re-evaluation of Adrenocorticotropic Hormone and Melanocyte Stimulating Hormone Activation of GPR139 in Vitro” (Frontiers in Pharmacology, 2018).
Ends that are not written are not given here.

Key:
[1] = biological target: T1, GPR139 (Homo sapiens, UniProt Q6DWJ6); test: Calcium mobilization, CHO-TREx cells stably expressing human GPR139; type: cell-based; parameters: expressed in transfected cells; host or cells: CHO-TREx GPR139 clone#18; settings: CHO-TREx stable GPR139
T1 sequence (Q6DWJ6 1-353): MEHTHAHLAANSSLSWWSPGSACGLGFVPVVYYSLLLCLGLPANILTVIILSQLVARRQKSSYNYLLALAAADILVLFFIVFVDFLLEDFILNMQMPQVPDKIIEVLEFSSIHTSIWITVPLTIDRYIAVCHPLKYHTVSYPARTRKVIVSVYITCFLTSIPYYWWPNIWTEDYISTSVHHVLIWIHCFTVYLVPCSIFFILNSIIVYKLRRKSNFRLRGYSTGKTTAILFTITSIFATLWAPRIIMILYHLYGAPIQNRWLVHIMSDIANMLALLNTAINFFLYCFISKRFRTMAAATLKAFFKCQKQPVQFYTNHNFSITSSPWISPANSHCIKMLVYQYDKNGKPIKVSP

[2] = biological target: T1, GPR139; test: [35S]-GTPγS binding assay, membranes of CHO-TREx cells stably expressing GPR139; type: biochemical; parameters: expressed in transfected cells; host or cells: CHO-TREx GPR139 clone#18
Experimental: For G-protein inhibitor experiments, CHO-TRex cells stably expressing GPR139 were treated with 100 ng/ml pertussis toxin (Gi/o inhibitor) overnight prior to harvesting cells for membrane preparations. […] Reactions were terminated by rapid filtration through GF/C filterplates (Perkin-Elmer, Waltham, MA, United States) on a Cell Harvester (Perkin-Elmer, Waltham, MA, United States). Filterplates were washed three times with ice-cold wash buffer (50 mM Tris, 5 mM MgCl2) and Microscint-40 was added to each well. Bound radioactivity was measured on a Topcount scintillation counter (Perkin-Elmer, Waltham, MA, United States). […] EC50s were calculated by modeling the response associated with the logarithm of concentration as a three-parameter logistic curve with the Bottom plateau parameter fixed at 0. The fit was obtained using least-squares non-linear regression as implemented in GraphPad Prism 7.0.

[3] = biological target: T1, GPR139; parameters: expressed in transfected cells; host or cells: CHO-TREx GPR139 clone#18; method as in Nøhr et al. (2017b); settings: ref Nøhr et al. (2017b), cited from earlier work; for Activation of GPR139, potency range in words: CHO cells stably expressing human GPR139
[4] = biological target: T1, GPR139; test: Calcium mobilization, HEK-293 cells stably expressing human GPR139; type: cell-based; parameters: expressed in transfected cells; settings: HEK-293 stable GPR139
Experimental: (§1) Human MC3R (NM_019888), MC4R (NM_005912), and MC5R (NM_005913) were transiently expressed in HEK-293 cells with and without human GPR139 (KR081941) or the chimeric G-protein Gα16. All genes were cloned into pCIneo (Promega, Madison, WI, United States, #E1841). HEK-293 cells were cultured in DMEM/F12 (Gibco, Grand Island, NY, United States, #11039-021), 10% FBS (Hyclone, Logan, UT, United States, # SH300700.03), 50 units/ml penicillin and 50 μg/ml streptomycin (Mediatech, Manassas, VA, United States, #30-001-CI). Cells were seeded at 4 × 10^6 cells in 10 cm dishes and allowed to grow overnight at 37°C, 5% CO2. On the day of transfection, culture media was replaced with F12-K (Mediatech, Manassas, VA, United States, #10-025-CV), 10% FBS, 20 mM HEPES (Hyclone, Logan, UT, United States, #SH30237.01) and transfected with 15 μg DNA (10 μg MCR:5 μg pCIneo, 10 μg MCR:5 μg Gα16 or 7.5 μg MCR:7.5 μg GPR139) using FuGene HD (Promega, Madison, WI, United States, #E2311) according to manufacturer’s instructions. MC3R, MC4R, and MC5R were also transiently expressed in the following GPR139 stably expressing cell lines using the FuGENE HD method: HEK-293 GPR139 clone#33, CHO-TREx GPR139 clone#18, and SK-N-MC/CRE TREx GPR139 clone#35. Stable cell lines were established according to method previously described ([Liu et al., 2015]).
(§2) Intracellular calcium mobilization was measured with the BD calcium kit (BD Bioscience, San Jose, CA, United States). The recombinant cell lines expressing MC3R, MC4R, and MC5R with and without GPR139 or Gα16 were seeded in culture media at a density of 50,000 cells/well into 96-well black/clear-bottom poly-D-lysine treated tissue culture plates. Cells were incubated overnight at 37°C and 5% CO2. Next day, culture media was removed and cells were washed with HBSS prior to dye-loading for 1 h at 37°C and 5% CO2. Agonist stimulation and intracellular calcium measurements were done on the FLIPR Tetra (Molecular Devices, Sunnyvale, CA, United States). For receptor inhibition analysis, antagonists (1 μM HS-024 or 10 μM JNJ-3792165) were added off-line 15 min prior to agonist addition on the Tetra. For G-protein inhibitor experiments, cells were treated with 1 μM YM-254890 for 5 min prior to agonist additions on the Tetra. […] Responses in Figure 6 were normalized to its respective agonist response without antagonist. EC50s were calculated by fitting a three-parameter logistic curve using least-squares non-linear regression analysis as implemented in Graphpad Prism 7.0.

[5] = biological target: T2, MC4R (Homo sapiens, UniProt P32245); test: Calcium mobilization, HEK-293 transiently expressing MC4R; type: cell-based; settings: HEK293; HEK-293 transient MC4R alone; read-out: Emax, calcium release in MC4R expressing cells
T2 construct: expressed in transfected cells; host or cells: HEK-293, pCIneo, transient (FuGene HD)
T2 sequence (P32245 whole entry): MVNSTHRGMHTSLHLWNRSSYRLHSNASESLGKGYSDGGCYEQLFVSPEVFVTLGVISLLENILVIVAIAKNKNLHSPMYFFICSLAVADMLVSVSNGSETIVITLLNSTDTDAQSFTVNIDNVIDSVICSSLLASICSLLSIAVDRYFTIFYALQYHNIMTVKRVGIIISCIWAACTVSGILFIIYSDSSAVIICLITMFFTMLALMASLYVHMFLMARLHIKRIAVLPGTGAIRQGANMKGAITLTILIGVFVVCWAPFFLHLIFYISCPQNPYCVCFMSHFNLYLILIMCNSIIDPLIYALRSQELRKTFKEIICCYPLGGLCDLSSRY
Experimental: as §1, §2

[6] = biological target: MC4R + Gα16 (Homo sapiens, UniProt P32245); test: Calcium mobilization, CHO-K1 cells transiently expressing MC4R + Gα16; type: cell-based; parameters: expressed in transfected cells; host or cells: CHO-K1, transient; settings: data not shown
MC4R + Gα16, sequence (P32245 whole entry): as above

[7] = biological target: T1, GPR139; test: Calcium mobilization, SK-N-MC/CRE cells stably expressing human GPR139; type: cell-based; parameters: expressed in transfected cells; host or cells: CHO-TREx GPR139 clone#18; settings: SK-N-MC/CRE stable GPR139
Experimental: as §1, §2

[8] = biological target: T1, GPR139; parameters: method as in Liu et al., 2015; settings: ref Liu et al., 2015; cited from earlier work
[9] = biological target: MC5R + GPR139 (Homo sapiens, UniProt Q6DWJ6); test: Calcium mobilization, HEK-293 transiently expressing MC5R + GPR139; type: cell-based; settings: MC5R + GPR139; 10 μM JNJ-3792165 or 1 μM HS-024
MC5R + GPR139, sequence (P33032 whole entry partner, one chain of several): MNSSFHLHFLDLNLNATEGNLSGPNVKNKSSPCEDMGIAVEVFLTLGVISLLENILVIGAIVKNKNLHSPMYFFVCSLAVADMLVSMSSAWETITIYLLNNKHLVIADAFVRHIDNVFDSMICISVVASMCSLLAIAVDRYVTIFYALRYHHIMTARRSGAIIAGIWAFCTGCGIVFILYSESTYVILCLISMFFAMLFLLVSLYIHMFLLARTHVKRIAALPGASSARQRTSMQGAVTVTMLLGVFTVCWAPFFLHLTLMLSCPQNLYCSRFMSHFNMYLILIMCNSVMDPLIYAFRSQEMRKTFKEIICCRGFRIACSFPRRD
Experimental: as §1, §2

[10] = biological target: MC3R + GPR139 (Homo sapiens, UniProt Q6DWJ6); test: Calcium mobilization, HEK-293 transiently expressing MC3R + GPR139; type: cell-based; settings: MC3R + GPR139; 10 μM JNJ-3792165 or 1 μM HS-024
MC3R + GPR139, sequence (P41968 whole entry partner, one chain of several): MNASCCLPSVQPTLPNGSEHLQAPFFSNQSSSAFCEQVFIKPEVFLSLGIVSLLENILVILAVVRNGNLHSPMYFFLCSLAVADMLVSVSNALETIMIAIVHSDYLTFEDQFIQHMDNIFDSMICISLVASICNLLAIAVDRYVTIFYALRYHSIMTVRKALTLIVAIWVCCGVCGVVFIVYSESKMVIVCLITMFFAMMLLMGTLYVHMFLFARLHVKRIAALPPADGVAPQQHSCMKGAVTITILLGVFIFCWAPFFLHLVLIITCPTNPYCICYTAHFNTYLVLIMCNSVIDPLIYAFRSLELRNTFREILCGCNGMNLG
Experimental: Intracellular calcium mobilization was measured with the BD calcium kit (BD Bioscience, San Jose, CA, United States). The recombinant cell lines expressing MC3R, MC4R, and MC5R with and without GPR139 or Gα16 were seeded in culture media at a density of 50,000 cells/well into 96-well black/clear-bottom poly-D-lysine treated tissue culture plates. Cells were incubated overnight at 37°C and 5% CO2. Next day, culture media was removed and cells were washed with HBSS prior to dye-loading for 1 h at 37°C and 5% CO2. Agonist stimulation and intracellular calcium measurements were done on the FLIPR Tetra (Molecular Devices, Sunnyvale, CA, United States). […] EC50s were calculated by fitting a three-parameter logistic curve using least-squares non-linear regression analysis as implemented in Graphpad Prism 7.0.

[11] = biological target: MC4R + GPR139 (Homo sapiens, UniProt Q6DWJ6); test: Calcium mobilization, HEK-293 transiently expressing MC4R + GPR139; type: cell-based; settings: MC4R + GPR139; 10 μM JNJ-3792165 or 1 μM HS-024
MC4R + GPR139, sequence (P32245 whole entry partner, one chain of several): as the sequence (P32245 whole entry) above
Experimental: as §1, §2

[12] = biological target: T1, GPR139; test: [3H]JNJ-63533054 radioligand binding assay, membranes of CHO-TREx cells stably expressing human GPR139; parameters: expressed in transfected cells; host or cells: CHO-TREx GPR139 clone#18; settings: 10 nM radioligand; CHO-TREx GPR139 membranes; read-out: pKi, displacement of [3H]JNJ-63533054 (converted)
Experimental: Reaction was terminated by filtration through GF/C filterplates pre-treated with PEI (polyethyleneimine) followed by washes with ice-cold TE buffer. Filterplates were dried in a 60°C oven followed by addition of Microscint-0. Bound radioactivity was read on a Topcount scintillation counter. […] Half-maximal inhibitory concentrations (IC50s) of test compounds were calculated by fitting a three-parameter logistic curve using least-squares non-linear regression analysis as implemented in Graphpad Prism 7.0. The Top plateau was fixed at 100 and the Bottom was fixed at 0.

[13] = tested on: over 50 other neurotransmitter and neuropeptide receptors including the MCRs; test: Selectivity panel of over 50 other neurotransmitter and neuropeptide receptors; type: binding; settings: at 1 μM
[14] = biological target: T1, GPR139; test: Calcium mobilization assay, antagonism at GPR139 (cell line not stated); type: cell-based; parameters: expressed in transfected cells; host or cells: CHO-TREx GPR139 clone#18; settings: read-out: pKb, antagonist in calcium mobilization assay (converted)
Experimental: as §2

Row | Molecule | Calcium mobilization activity, in words [4] | Emax [5] [%] | Calcium response in CHO-K1 cells co-expressing MC4R + Gα16 [6] | Activation of GPR139, potency range in words [3] | Antagonist effect on ACTH, α-MSH and β-MSH induced calcium response [9] | Antagonist effect on calcium response to GPR139 agonists (JNJ-63533054, TC-09311, L-Trp) [9] | Antagonist effect on ACTH, α-MSH and β-MSH induced calcium response [10] | Antagonist effect on calcium response to GPR139 agonists (JNJ-63533054, TC-09311, L-Trp) [10] | Antagonist effect on ACTH, α-MSH and β-MSH induced calcium response [11] | Antagonist effect on calcium response to GPR139 agonists (JNJ-63533054, TC-09311, L-Trp) [11] | also measured
1 | CSCC[C@H](NC(=O)[C@H](CCCNC(=N)N)NC(=O)[C@H](Cc1ccc(O)cc1)NC(=O)[C@@H]1CCCN1C(=O)CNC(=O)[C@H](CCC(=O)O)NC(=O)[C@H](CC(=O)O)NC(=O)[C@H](CCCCN)NC(=O)[C@H](CCCCN)NC(=O)[C@H](CCC(=O)O)NC(=O)[C@H](C)N)C(=O)N[C@@H](CCC(=O)O)C(=O)N[C@@H](Cc1c[nH]cn1)C(=O)N[C@@H](Cc1ccccc1)C(=O)N[C@@H](CCCNC(=N)N)C(=O)N[C@@H](Cc1c[nH]c2ccccc12)C(=O)NCC(=O)N[C@@H](CO)C(=O)N1CCC[C@H]1C(=O)N1CCC[C@H]1C(=O)N[C@@H](CCCCN)C(=O)N[C@@H](CC(=O)O)C(=O)O [β-MSH, β melanocyte stimulating hormone] | No activity was detected | 24 | calcium response | sub- to low micromolar range | – | – | – | – | – | – | Calcium mobilization activity, in words [1]: No activity was detected; Activation of GPR139 ([35S]-GTPγS incorporation), in words ([2]; up to 30 μM): did not activate GPR139; Calcium mobilization activity, in words [7]: No activity was detected
2 | N[C@@H](Cc1ccccc1)C(=O)O [L-Phe, L-phenylalanine] | – | – | – | – | – | – | – | – | – | – | EC50 [8]: 30000 to 300000 nM
3 | HS-024 | – | – | – | – | fully blocked | reduced the efficacy | rightward shift of the EC50 | had no effect | reduction in both potency and efficacy | had no effect | –
4 | SYSMEHFRWGKPVGKKRRPVKVYPNGAEDESAEAFPLEF [ACTH, adrenocorticotropic hormone] | did not increase calcium mobilization | 27 | calcium response | sub- to low micromolar range | – | – | – | – | – | – | Fold less potent on GPR139 than on MC4R [3]: 100 fold
5 | Cc1cccc(NC(=O)c2cc(C)n(Cc3c(Cl)cccc3Cl)n2)c1 [JNJ-3792165, 1H-pyrazole-3-carboxamide, 1-[(2,6-dichlorophenyl)methyl]-5-methyl-N-(3-methylphenyl)] | – | – | – | – | did not block | fully inhibited | did not block | fully inhibited | did not block | fully inhibited | Ki [12]: 20 nM; Kb ([2]; read-out: pKb, antagonist in [35S]GTPγS assay (converted)): 39.8 nM; Inhibition at any receptor other than GPR139 (selectivity panel) [13]: less than 50%; Kb [14]: 126 nM
